Test results taken from patent publication US8129532B2, “Amino(oligo)thiophene dyes, preparation thereof, and optical methods of use” (The University of Connecticut, priority 2007, dated 2012).

Columns and labels:
dye-stained cells = assay: Confocal fluorescence intensity and bleaching of dye-stained cells; format: cell-based; conditions: compared with PY-1261
[1] = One-photon fluorescence relative signal change per 100 mV; conditions: excitation / long-pass emission (nm) given
Description: The left-most data columns of Table 1 are the absorption and emission maxima for one photon fluorescence in soybean multi-lamellar lipid vesicles used to mimic the membrane environment. The column indicating relative signal change for one-photon fluorescence also lists the excitation light source used and the lower bounds of the long-pass emission detected.

[2] = One-photon absorption and emission spectra in multilamellar lipid vesicles, water and ethanol; format: physicochemical
Description: […] The column indicating relative signal change for one-photon fluorescence also lists the excitation light source used and the lower bounds of the long-pass emission detected.
Absorption and emission spectra were obtained for a series of dyes with different acceptors: pyridinium (PY-1261), quinolinium (PY-212), and acridinium (PY-2240).

[3] = system: layer V pyramidal neurons; assay: Voltage-sensitive dye imaging of action potentials in intracellularly stained pyramidal neurons in brain slices; format: cell-based, Sprague Dawley rats
Description: Sprague Dawley rats (P21-42) were anesthetized with isoflurane, decapitated, and the brains were removed with the head immersed in ice-cold, artificial cerebrospinal fluid (ACSF), according to an animal protocol approved by the Center for Laboratory Animal Care, University of Connecticut. Brain slices (300 μm) were cut from frontal lobes in the coronal plane. ACSF contained (in mM) 125 NaCl, 26 NaHCO3, 10 glucose, 2.3 KCl, 1.26 KH2PO4, 2 CaCl2 and 1 MgSO4, pH 7.4. Whole-cell recordings were made from visually identified layer V pyramidal neurons on the medial part of the slice. Intracellular solution contained (in mM) 135 K-gluconate, 2 MgCl2, 3 Na2-ATP, 10 Na2-phosphocreatine, 0.3 Na2-GTP and 10 Hepes (pH 7.3, adjusted with KOH). Electrical signals were amplified with Multiclamp 700A and digitized with two input boards: (1) Digidata Series 1322A (Axon Instruments) at 5 kHz, and (2) Neuroplex (RedShirtImaging) at 2.7 kHz sampling rate. Only cells with a membrane potential more hyperpolarized than −50 mV, and action potential amplitudes exceeding 80 mV (measured from the base line) were included in this study. All experiments were performed on layer 5 cortical pyramidal cells at 34° C.
Blue dyes were stored in ethanol stock solution at −20° C. On the day of the recording blue dyes were dissolved in standard K-gluconate based intracellular solution. A loading pipette was filled with two varieties of the same intracellular solution; one with and one without dye. Dye-free solution was occupying the very tip of the pipette, while the back of the pipette lumen was microloaded with dye-rich solution. The purpose of dye-free solution in the tip of the patch pipette was to prevent dye-leak during the maneuver through brain slice tissue. VSD styryl dyes are lipophilic and bind indiscriminately and irreversibly to all membranes around the neuron of interest. Even a small amount of dye that leaks out of the pipette during the formation of the gigaohm seal, can generate strong fluorescent background. Fluorescent light emanating from surrounding tissue has a devastating effect on dendritic optical signals. Elimination of the background fluorescence is critical for dendritic voltage imaging. How much dye-free solution one should put in the tip depends on time period between the submersion of the patch pipette into the recording chamber and formation of the gigaohm seal. The faster one can perform this maneuver the less dye-free solution she needs to achieve optimal staining.
Blue VSD were injected at room temperature for 25-60 minutes. The filling pipette was carefully pulled out (outside-out patch) and brain slices were left to incubate for 20-120 minutes at room temperature. Just before optical recordings the cells were re-patched with dye-free pipette at the physiological temperature (34° C.).
Voltage-sensitive dye imaging was performed on a Zeiss Axioskope 2FS microscope equipped with NeuroCCD camera (RedShirtImaging). We used Zeiss 40× objective IR-Achroplan 0.80 W. The size of the square visual field captured by NeuroCCD camera was 384×384 um. In the place of the arc lamp (normally used for epi-illumination), we inserted a 200 μm fiber optic guide with a collimator. Laser beam was focused on the other side of the fiber optic guide using a microscope objective-like lens. This arrangement produced a motionless spot of laser light (˜25 μm in diameter) at the object plane. An illuminated section of the brain slice, projected onto the NeuroCCD camera, covered approximately 25 pixels when used with 40× objective lens. At this magnification, one pixel sampled a 4.8×4.8 square in the object plane. A region of interest (ROI) was brought into the laser spot using X-Y microscope platform. The laser beam was interrupted by an electro-programmable shutter (Uniblitz®). Attention was made to limit the exposure time during the recording and positioning of the neuron.

[4] = system: layer V pyramidal neurons; assay: Toxicity / photodynamic damage: AP half-width during optical recording
Description: S. Antic, G. Major, D. Zecevic, “Fast optical recordings of membrane potential changes from dendrites of pyramidal neurons”, Journal of Neurophysiology, 82, 1615-1621 (1999). Accumulation of reactive oxygen species (free radicals), which interact with and damage neuronal plasmalemma, is the most likely mechanism. J. B. Feix, B. Kalyanaraman, “Production of singlet oxygen-derived hydroxyl radical adducts during merocyanine-540-mediated photosensitization: analysis by ESR-spin trapping and HPLC with electrochemical detection”, Archives of Biochemistry & Biophysics, volume 291, pages 43-51 (1991). High intensity illumination during optical recording sessions excites large number of membrane bound dye molecules. Since styryl dyes have tendency to penetrate deep into the lipid bilayers (E. Fluhler, V. G. Burnham, L. M. Loew, “Spectra, membrane binding, and potentiometric responses of new charge shift probes”, Biochemistry, 24, 5749-5755 (1985)), free radicals are produced literally inside the neuronal membrane. […] S. D. Antic, “Action potentials in basal and oblique dendrites of rat neocortical pyramidal neurons”, Journal of Physiology 550, 35-50 (2003). […] Since dye loading was always done at room temperature (21° C.) and re-patching at 34° C., we could not compare AP shape and size before and after dye loading. Therefore, in order to check the extent of dye toxicity we designed a group of experiments in which neurons were injected and incubated at 34° C. During the dye injection (loading phase), in regular time intervals (3-5 min) direct current pulses was used to slowly charge the membrane and trigger an AP (FIG. 14A). Identical current pulse was then applied at the end of dye loading phase, just before the electrode pull-out (FIG. 14B) and after the 50-90 min incubation period (FIG. 14C, re-patch). […] To avoid AP jitter in optical recordings we used shorter and stronger current pulses (FIG. 14D, E, F, insets). However, from time to time we returned to AP-testing current injection protocol (FIG. 14D, E), while keeping the count on the number of cumulative high-intensity light exposures (# sweeps). […] Additional experimental details can be found in Ping Yan, Aifang Xie, Meide Wei, and Leslie M. Loew, “Amino(oligo)thiophene-Based Environmentally Sensitive Biomembrane Chromophores”, Journal of Organic Chemistry, published on web Jul. 30, 2008.

[5] = compared with unfluorinated PY-1261
[6] = one photon, soybean multi-lamellar lipid vesicles

Row | Compound | half time for bleaching of dye-stained cells (dye-stained cells) | intensity of fluorescence of stained cells (dye-stained cells; confocal microscope) | 1PF Change (ΔF/F-100 mv) [1] | absorbance extinction coefficient of dye-stained lipid vesicle suspensions [2, 5] | effect of fluorination on spectra [2, 5] | 1PF Abs. Max [2, 6] | 1PF Em. Max [2, 6] | AP-associated optical signal, single example (base line-to-peak) ([3]; FIG. 11, basal dendrite) | S/N ratio at 532 nm ([3]; laser spot 532 nm) | Absorbance ethanol ([2]; ethanol) | Emission ethanol ([2]; ethanol) | Absorbance MLV ([2]; multilamellar lipid vesicles) | Emission MLV ([2]; multilamellar lipid vesicles) | Absorbance water ([2]; water) | slope of linear fit, AP half-width versus cumulative sweeps ([4]; FIG. 15A, 15C) | sweeps recorded before AP half-width grew by more than 15% from control ([4]; n=12)
1 | CCN(CC)c1ccc(-c2ccc(/C=C(\F)c3cc[n+](CCC[N+](CC)(CC)CC)cc3)s2)s1 [PY-3008] | increases the half time for bleaching | increases | 1.0E−001; 650/>715 ΔF/F-100 mv | increases | shifts the spectra to the red | 565 nm | 706 nm |  |  |  |  |  |  |  |  | 
2 | Di-1-ANEPEQ [JPW-3028, reference compound] |  |  |  |  |  |  |  | 5 % ΔF/F | {at 532 nm = 5.95 ± 2.16} | 511 nm | 718 nm | 457 nm | 670 nm | 440 nm | 0.0027 | 86±28 sweeps
